Read-outs that look alike come from different tables or passages of the source.
Conditions: for time to therapeutic effect (time when dP/dt max leveled off): n=1
Method: Female Sprague Dawley rats (225-300 g) were anaesthetized using isoflurane (1-3% isoflurane in oxygen). Animals were treated with a single dose of sustained release buprenorphine (Bup-SR) at 1 mg/kg subcutaneously to control pain. 2 device of the invention reservoirs (porous or non-porous) were implanted subcutaneously in the rat, the device implantation procedure is shown in FIG. 3A. Briefly, the hair on the back of the rat was removed and surgical sites were prepared with 3 washes of Betadine and 70% ethanol. Devices were sterilized using ethylene oxide prior to implantation. An anterior incision was made at the base of the neck for the and 2 posterior incisions were made 9 cm from the original incision along the back of the rat, 1 cm lateral of the spine. A blunt dissection was made at all incisions and a forceps was used to tunnel subcutaneously from the anterior to the posterior sites. A vascular access button, or self-sealing subcutaneous port (VAB95BS-MRI, VABM2B/22R22, VABR4B/22 Instech Laboratories), was connected to the dorsal end of the catheter of each device of the invention reservoir. The port was placed in position at the base of the neck and the devices tunneled posteriorly into position. The port was secured to the underlying fascia using at least one interrupted suture (5-0 monofilament). Each device of the invention reservoir was secured to the underlying fascia with one suture at either side (7-0 monofilament). The skin was closed with interrupted sutures (5-0 monofilament) and the animal was allowed to recover on a heated pad. 3 mL of warm saline were administered subcutaneously. The following day, one of the two implanted device of the invention reservoirs was actuated at controlled input pressures of 1 PSI (Regime 1) or 2 PSI (Regime 2) at 1 Hz every 12 hours for 14 days (FIG. 3b) and compared to the non-actuated control reservoir for analysis. On day 15, animals were sacrificed by CO2. Following sacrifice, each device and the immediate surrounding tissue were extracted.

CNC[C@H](O)c1ccc(O)c(O)c1 [epinephrine]
time to therapeutic effect (time when dP/dt max leveled off) (actuated device, 35 uL of 1 mg/ml): ~40 s
time to therapeutic effect (time when dP/dt max leveled off) (control (non-actuated) device, same animal): ~170 s
cyclical average dp/dt max in the first 40 s after delivery, actuation group compared with control (first 40 s after delivery, P<0.0001): significantly higher

Reference: patent US20230094196A1, “AN IMPLANTABLE MEDICAL DEVICE” (NATIONAL UNIVERSITY OF IRELAND, GALWAY, priority 2019, published 2023)
